Reference: ChEMBL document CHEMBL6177971, “Iterative Optimization Yields Stapled Peptides with Superior Pharmacokinetics and Potency for Renal Fibrosis Treatment” (J Med Chem, 2025)
Activity calls are given as the source filed them. The rule behind the calls is not given here. *1 amine or outer side, *2 acyl side, *3 side chain or, on linkers, in order; H or OH if unused. Where a SMILES comes first, the peptide text is derived from it. Bridges are numbered along the chain shown (N, C = ends). [ ]: non-standard residue; d: D form. Gly(pent-4-enyl) = C=CCCC[C@H](N)C(=O)O; Octanediyl(1,8) = C(CCCC[*:2])CCC[*:1]; S5 = C=CCCC[C@](C)(N)C(=O)O; X2 = C(CCC[*:2])CC[*:1]; X4 = C(CC[*:2])C[*:1]

Legend:
NIH3T3 [1] = test: Inhibition of TGF-beta1-induced EMT in mouse NIH3T3 cells assessed as decrease in alpha-SMA level at 10 uM incubated for 48 hrs by Western blot analysis; format: functional, cell-based
NIH3T3 [2] = test: Inhibition of TGF-beta1-induced EMT in mouse NIH3T3 cells assessed as decrease in fibronectin level at 10 uM incubated for 48 hrs by Western blot analysis; format: functional, cell-based
NIH3T3 [3] = test: Cytotoxicity against mouse NIH3T3 cells assessed as inhibition of cell viability up to 160 uM incubated for 48 hrs by CCK8 assay; format: toxicity, cell-based; settings: nih3t3, 48 h
[4] = Half life of compound; format: physicochemical
[5] = Stability in C57BL/6J mouse serum assessed as proteolysis resistance measured up to 72 hrs by HPLC analysis; format: ADME, cell-free

Compound	inhibition (NIH3T3 [1])	inhibition (NIH3T3 [2])	Activity (NIH3T3 [3])	half-life [4]	Stability [5]
C=CCCC[C@](C)(NC(=O)[C@H](Cc1c[nH]cn1)NC(=O)[C@@H](CC(=O)O)NC(=O)CCCCCCCCCCC)C(=O)N[C@H](CC(N)=O)C(=O)N1CCC[C@H]1C(=O)N[C@@H](CCC(N)=O)C(=O)N[C@H](C)C(=O)N[C@@H](CCCNC(=N)N)C(N)=O	Active	Active	Toxic		
C[C@@]1(C(=O)N[C@@H](CCCNC(=N)N)C(N)=O)CCC/C=C\CCC[C@](C)(NC(=O)[C@H](Cc2cnc[nH]2)NC(=O)[C@@H](N)CC(=O)O)C(=O)N[C@@H](CC(N)=O)C(=O)N2CCC[C@H]2C(=O)N[C@@H](CCC(N)=O)C(=O)N1 (H-DH[S5]NPQ[S5]R-NH2; staple (Z) 3-7)	inactive	inactive	Non-toxic	1.11 h	Stable
C=CCCC[C@H](NC(=O)[C@H](CCC(N)=O)NC(=O)[C@@H]1CCCN1C(=O)[C@H](CC(N)=O)NC(=O)[C@](C)(CCCC=C)NC(=O)[C@H](Cc1c[nH]cn1)NC(=O)[C@@H](N)CC(=O)O)C(=O)N[C@@H](CCCNC(=N)N)C(N)=O (H-DH[S5]NPQ[Gly(pent-4-enyl)]R-NH2)	Active	Active	Non-toxic	0.9 h	Stable
C[C@@H](NC(=O)[C@H](CCC(N)=O)NC(=O)[C@@H]1CCCN1C(=O)[C@@H](CC(N)=O)NC(=O)[C@H](CCC(N)=O)NC(=O)[C@H](Cc1c[nH]cn1)NC(=O)[C@H](N)CC(=O)O)C(=O)N[C@@H](CCCNC(=N)N)C(N)=O	Active	Active	Non-toxic	424 h	
C=CCCC[C@](C)(NC(=O)[C@H](Cc1c[nH]cn1)NC(=O)[C@H](N)CC(=O)O)C(=O)N[C@H](CC(N)=O)C(=O)N1CCC[C@H]1C(=O)N[C@@H](CCC(N)=O)C(=O)N[C@H](C)C(=O)N[C@@H](CCCNC(=N)N)C(N)=O	Active	Active	Non-toxic	129 h	
CC[C@H](C)[C@H](NC(=O)[C@H](CCC(N)=O)NC(=O)[C@@H]1CCCN1C(=O)[C@H](CS)NC(=O)[C@H](CC(N)=O)NC(=O)[C@H](Cc1c[nH]cn1)NC(=O)[C@@H](N)CC(=O)O)C(=O)N[C@@H](CS)C(N)=O (H-DHNCPQIC-NH2)			Non-toxic	3.82 h	Stable
CC[C@H](C)[C@@H]1NC(=O)[C@H](CCC(N)=O)NC(=O)[C@@H]2CCCN2C(=O)[C@@](C)(NC(=O)[C@H](CC(N)=O)NC(=O)[C@H](Cc2c[nH]cn2)NC(=O)[C@@H](N)CC(=O)O)CCC/C=C/CCC[C@@](C)(C(N)=O)NC1=O (H-DHN[S5]PQI[S5]-NH2; staple (E) 4-8)	inactive	inactive	Non-toxic	12.3 h	Stable
C=CCCC[C@](C)(NC(=O)[C@H](Cc1c[nH]cn1)NC(=O)[C@@H](N)CC(=O)O)C(=O)N[C@H]1CSCCCCSC[C@@H](C(N)=O)NC(=O)[C@H]([C@@H](C)CC)NC(=O)[C@H](CCC(N)=O)NC(=O)[C@@H]2CCCN2C1=O (H-DH[S5]CPQIC-NH2; linker 4-8 via X4)	Active	Active	Non-toxic	54.1 h	
C=CCCC[C@](C)(NC(=O)[C@H](Cc1c[nH]cn1)NC(=O)[C@@H](N)CC(=O)O)C(=O)N[C@H]1CSCCCCCCSC[C@@H](C(N)=O)NC(=O)[C@H]([C@@H](C)CC)NC(=O)[C@H](CCC(N)=O)NC(=O)[C@@H]2CCCN2C1=O (H-DH[S5]CPQIC-NH2; linker 4-8 via X2)	Active	Active	Non-toxic	1.81 h	Unstable
C=CCCC[C@](C)(NC(=O)[C@H](Cc1c[nH]cn1)NC(=O)[C@@H](CC(=O)O)NC(=O)CCCCCCCCCCCCCCCCC)C(=O)N[C@H](CC(N)=O)C(=O)N1CCC[C@H]1C(=O)N[C@@H](CCC(N)=O)C(=O)N[C@H](C)C(=O)N[C@@H](CCCNC(=N)N)C(N)=O	Active	Active	Toxic		
C[C@@H](NC(=O)[C@H](CCC(N)=O)NC(=O)[C@@H]1CCCN1C(=O)[C@@H](CC(N)=O)NC(=O)[C@H](CC(N)=O)NC(=O)[C@H](Cc1c[nH]cn1)NC(=O)[C@H](N)CC(=O)O)C(=O)N[C@@H](CCCNC(=N)N)C(N)=O	Active	Active	Non-toxic	101 h	
C=CCCC[C@](C)(NC(=O)[C@@H](NC(=O)[C@H](CCC(N)=O)NC(=O)[C@@H]1CCCN1C(=O)[C@](C)(CCCC=C)NC(=O)[C@H](CC(N)=O)NC(=O)[C@H](Cc1c[nH]cn1)NC(=O)[C@@H](N)CC(=O)O)[C@@H](C)CC)C(N)=O (H-DHN[S5]PQI[S5]-NH2)	Active	Active	Non-toxic	5.67 h	Stable
CC[C@H](C)[C@H](NC(=O)[C@H](Cc1c[nH]cn1)NC(=O)[C@H](N)CC(=O)O)C(=O)N[C@H](CC(N)=O)C(=O)N1CCC[C@H]1C(=O)N[C@@H](CCC(N)=O)C(=O)N[C@H](C)C(=O)N[C@@H](CCCNC(=N)N)C(N)=O	Active	Active	Non-toxic	125 h	
C=CCCC[C@](C)(NC(=O)[C@H](Cc1c[nH]cn1)NC(=O)[C@@H](N)CC(=O)O)C(=O)N[C@@H](CS)C(=O)N1CCC[C@H]1C(=O)N[C@@H](CCC(N)=O)C(=O)N[C@H](C(=O)N[C@@H](CS)C(N)=O)[C@@H](C)CC (H-DH[S5]CPQIC-NH2)			Non-toxic	1.48 h	Stable
C[C@@H](NC(=O)[C@H](CCC(N)=O)NC(=O)[C@@H]1CCCN1C(=O)[C@@H](CC(N)=O)NC(=O)[C@H](CCCCN)NC(=O)[C@H](Cc1c[nH]cn1)NC(=O)[C@H](N)CC(=O)O)C(=O)N[C@@H](CCCNC(=N)N)C(N)=O	inactive	inactive	Non-toxic	272 h	
CC[C@H](C)[C@@H]1NC(=O)[C@H](CCC(N)=O)NC(=O)[C@@H]2CCCN2C(=O)[C@@H](NC(=O)[C@H](CC(N)=O)NC(=O)[C@H](Cc2c[nH]cn2)NC(=O)[C@@H](N)CC(=O)O)CSCCCCCCCCSC[C@@H](C(N)=O)NC1=O (H-DHNCPQIC-NH2; linker 4-8 via Octanediyl(1,8))	Active	Active	Non-toxic	2.01 h	Unstable
C=CCCC[C@](C)(NC(=O)[C@H](Cc1c[nH]cn1)NC(=O)[C@@H](CC(=O)O)NC(=O)CCCCCCCCCCCCCCC)C(=O)N[C@H](CC(N)=O)C(=O)N1CCC[C@H]1C(=O)N[C@@H](CCC(N)=O)C(=O)N[C@H](C)C(=O)N[C@@H](CCCNC(=N)N)C(N)=O	Active	Active	Toxic		
CC[C@H](C)[C@@H]1NC(=O)[C@H](CCC(N)=O)NC(=O)[C@@H]2CCCN2C(=O)[C@H](CC(N)=O)NC(=O)[C@H](CC(N)=O)NC(=O)[C@H](Cc2c[nH]cn2)NC(=O)[C@H](CC(=O)O)NC(=O)[C@H](CCCNC(=N)N)NC1=O (cyclo(DHNNPQIR))	Active	Active	Non-toxic	9.97 h	
C=CCCC[C@](C)(NC(=O)[C@H](Cc1c[nH]cn1)NC(=O)[C@@H](CC(=O)O)NC(=O)CCCCCCCCCCC)C(=O)N[C@H]1CSCCCCCCSC[C@@H](C(N)=O)NC(=O)[C@@H](C)NC(=O)[C@H](CCC(N)=O)NC(=O)[C@@H]2CCCN2C1=O	Active	Active	Toxic	91.6 h	Stable
H-HNNPQIRD-OH			Non-toxic	0.57 h	
C[C@@H](NC(=O)[C@H](CCC(N)=O)NC(=O)[C@@H]1CCCN1C(=O)[C@@H](CC(N)=O)NC(=O)[C@H](Cc1ccccc1)NC(=O)[C@H](Cc1c[nH]cn1)NC(=O)[C@H](N)CC(=O)O)C(=O)N[C@@H](CCCNC(=N)N)C(N)=O	Active	Active	Non-toxic	102 h	
C=CCCC[C@](C)(NC(=O)[C@H](Cc1c[nH]cn1)NC(=O)[C@@H](CC(=O)O)NC(=O)CCCCCCCCCCCCC)C(=O)N[C@H](CC(N)=O)C(=O)N1CCC[C@H]1C(=O)N[C@@H](CCC(N)=O)C(=O)N[C@H](C)C(=O)N[C@@H](CCCNC(=N)N)C(N)=O	Active	Active	Toxic		
